Patent US20180192641A1, “Compositions and Methods for Preservation of Materials in the Amorphous State” (University of North Carolina Charlotte, priority 2014, published 2018)
Blank lines part the entries; values can stand above or below the molecule they belong to.

Legend:
[1] = moisture sorption (dynamic vapor sorption) and visual onset of crystallization in microwave-dried amorphous trehalose/salt samples at 61% RH; assay type: physicochemical
Protocol: A stock solution of 30.8 wt % trehalose (1.3 M), made in 1×TE buffer (1×Tris-EDTA buffer, pH 8.0, consisting of 10 mM Tris-HCl and 1 mM EDTA), was used to prepare solutions with varying amounts of phosphate salts (salt to trehalose molar ratio (R) is 1:4.8, 1:2 and 1:0.7). […] The end moisture content was measured below 0.105 gH2O/gdw which is known to produce a glass transition temperature higher than room temperature in the case of aqueous trehalose solutions. […] Specifically, in order to investigate moisture sorption in different trehalose/salt compositions at the 61% relative humidity, a closed environment with a stable relative humidity over the test duration was prepared. Supersaturated salt solutions of sodium bromide (prepared by following ASTM Protocol E 104-02) are capable of producing an environment with constant relative humidity of 61%. […] glass jars with rubber seals and clamps or Mason glass jars with screw caps are used as controlled humidity vessels (1 L, total height 159 mm, mouth Dia. 89 mm). The dynamic vapor sorption (DVS) method was used to monitor moisture sorption in the microwave-processed trehalose samples before and after crystallization (crystals were detected visually in samples). The moisture uptake in trehalose/salt samples were monitored to evaluate the effect of salts on end moisture content at time zero after microwave processing at 11% RH. Moisture sorption trends in samples over the experiment duration while held in the preservation jars (61% RH) were also evaluated. In this study, the gravimetric method was used to determine the dry weight of samples with different compositions (expressed in terms of mass of water per mass of solids). […] (below the crystallization temperature of Trehalose). The sample was then cooled in a desiccator containing phosphorus pentoxide (P2O5) which maintained the humidity near 0% RH. By recording the initial wet mass and the bake-out dry mass, the dry weight of each composition was obtained.

[2] = 37.5% RH; cited from earlier work
[3] = 25° C.; cited from earlier work
[4] = remained constant in RH environment of up to 92%; cited from earlier work

SMILES: C[N+](C)(C)CCO.O=P([O-])(O)O [pure choline dihydrogen phosphate, choline dihydrogen phosphate]
hygroscopicity (moisture uptake) ([1]; 61% RH): very hygroscopic | crystallization observed ([1]; 61% RH, pure salt without trehalose): no crystallization

water absorbed to enable the formation of trehalose dihydrate ([1]; 61% RH): around 0.105 gH2O/g trehalose | moisture content level after crystallization ([1]; 61% RH, level the moisture content fell to after crystallization (pure trehalose: during the following 18 days)): around 0.105 gH2O/gdw | time (day) of onset of sugar crystallization, observed visually ([1]; storage at 61% RH after microwave drying at 11% RH): 1 days
SMILES: OC[C@H]1O[C@H](O[C@H]2O[C@H](CO)[C@@H](O)[C@H](O)[C@H]2O)[C@H](O)[C@@H](O)[C@@H]1O [pure trehalose, trehalose]
crystals on DSC thermograms [2]: did not show any crystals | RH at which isotherm exhibited a plateau (formation of trehalose dihydrate crystals) [3]: ≥ 44 % RH

SMILES: OC[C@H]1O[C@H](O[C@H]2O[C@H](CO)[C@@H](O)[C@H](O)[C@H]2O)[C@H](O)[C@@H](O)[C@@H]1O [trehalose dihydrate]
moisture content of trehalose dihydrate [4]: 9.54%
